The NIST ThermoML archive (doi:10.1021/je500237g)
± gives the expanded uncertainty stated by the source.

Key:
[1] = Liquid; for mass density: 293.15 K, 101.33 kPa, Vibrating tube method; for vapor or sublimation pressure: Ebulliometric method (Recirculating still)
[2] = refractive index (Na D-line) (dimensionless); settings: 293.15 K; 101.33 kPa; Liquid; Standard Abbe refractometry

Row | mass density [1] | vapor or sublimation pressure ([1]; 453.7 K) | refractive index [2] | vapor or sublimation pressure ([1]; 346.5 K) | vapor or sublimation pressure ([1]; 367.1 K) | vapor or sublimation pressure ([1]; 357.6 K) | Compound
1 | 750 ± 0.8 kg/m3 | 40 ± 0.2 kPa | 1.4218 ± 0.0007 | – | – | – | CCCCCCCCCCCC [dodecane]
2 | 804.9 ± 0.8 kg/m3 | – | 1.3851 ± 0.0007 | 40 ± 0.2 kPa | – | – | CCCO [propan-1-ol]
3 | 810.4 ± 0.8 kg/m3 | – | 1.3992 ± 0.0007 | – | 40 ± 0.2 kPa | – | CCCCO [butan-1-ol]
4 | 802.7 ± 0.8 kg/m3 | – | 1.3954 ± 0.0007 | – | – | 40 ± 0.2 kPa | CC(C)CO [2-methyl-1-propanol]
